This note sets out measurements from patent publication US6214859A, “Ethylamine derivatives” (Fujimoto Brothers Co., Ltd., priority 1997, dated 2001).

The test system of data set [1] is dopamine release, substantia nigra. The experiment in a line: Release of biogenic amines from brain tissue: dopamine, substantia nigra. The class given is in vivo, Wistar rats.
Data set [2] deals with noradrenaline release, locus coeruleus. Briefly: Release of biogenic amines from brain tissue: noradrenaline, locus coeruleus. The class given is in vivo, Wistar rats.
Data set [3] deals with serotonin release, raphe. The experiment in a line: Release of biogenic amines from brain tissue: serotonin, raphe. The class given is in vivo, Wistar rats.
Data set [4] has as its system rats reduced learning ability by tetrabenazine. The experiment in a line: Conditioned avoidance task in the shuttle box (tetrabenazine-treated rats). The class given is in vivo, rat. As to conditions: tetrabenazine 1 mg/kg s.c., significance and direction. The method, boiled down: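 Male and female rats (200–220 g) were trained in a shuttle box (light/buzzer conditioned stimulus, 100 trials/day for 5 days). Tetrabenazine 1 mg/kg s.c. was given 1 h before testing, with compound at 1, 2, 2.5 or 5 mg/kg s.c. given together with tetrabenazine. CARs, EFs and IRs were counted automatically and analysed by multi-way ANOVA.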

The test system of data set [5] is dopamine release, striatum. The experiment in a line: Release of biogenic amines from brain tissue: dopamine, striatum. The class given is in vivo, Wistar rats.
For data set [6], the system named is dopamine release, tuberculum olfactorium. Briefly: Release of biogenic amines from brain tissue: dopamine, tuberculum olfactorium. The class given is in vivo, Wistar rats.
The test system of data set [7] is mice. The experiment in a line: Toxicity test in mice in the single administration. The class given is in vivo, mouse. Conditions: 50 mg/kg s.c., two weeks. The protocol: After the compounds of Examples 3, 25, 27 and 28 were administered subcutanously to mice, general symptoms of the mice were observed every day for two weeks.

For `CCCNC(CCC)Cc1ccc2ccccc2c1.Cl` (stereo not drawn) [Compound No. 3, 1-(2-Naphthyl)-2-propylaminopentane Hydrochloride], the “Release of dopamine, substantia nigra” value in data set [1] (0.25 mg/kg s.c.) was 4.9 ± 0.07 nmol/g tissue, for 20 min; in data set [1] (1.00 mg/kg s.c., Hydrochloride), 4.5 ± 0.07 nmol/g tissue, for 20 min; in data set [1] (5.00 mg/kg s.c.), 9.0 ± 0.50 nmol/g tissue, for 20 min. The “Release of noradrenaline, locus coeruleus” value in data set [2] (0.25 mg/kg s.c.) was 4.4 ± 0.10 nmol/g tissue, for 20 min; in data set [2] (1.00 mg/kg s.c., Hydrochloride) it was 2.6 ± 0.10 nmol/g tissue, for 20 min; in data set [2] (5.00 mg/kg s.c.) it was 2.2 ± 0.11 nmol/g tissue, for 20 min. The “Release of serotonin, raphe” value in data set [3] (0.25 mg/kg s.c.) is 0.958 ± 0.03 nmol/g tissue, for 20 min; in data set [3] (5.00 mg/kg s.c.), 1.215 ± 0.14 nmol/g tissue, for 20 min. Further, the “Escape Failures (EFs)” value is “**** .dwnarw” in data set [4] (1 mg/kg s.c.), “**** .dwnarw” in data set [4] (2 mg/kg s.c.), “*** .dwnarw” in data set [4] (2.5 mg/kg s.c.) and “**** .dwnarw” in data set [4] (5 mg/kg s.c.). The “Condition Avoidance Reflex (CARs)” value in data set [4] (1 mg/kg s.c., Hydrochloride) is given as “**** .Arrow-up bold”; in data set [4] (2 mg/kg s.c.), “**** .Arrow-up bold”; in data set [4] (2.5 mg/kg s.c.), “**** .Arrow-up bold”; in data set [4] (5 mg/kg s.c.), “**** .Arrow-up bold”. Moreover, in data set [4] (2.5 mg/kg s.c.), the “Intersignal Reactions (IRs)” value is “* .dwnarw”. Besides, the “Release of dopamine, striatum” value in data set [5] (0.25 mg/kg s.c.) was 3.4 ± 0.03 nmol/g tissue, for 20 min; in data set [5] (1.00 mg/kg s.c., Hydrochloride), 3.9 ± 0.12 nmol/g tissue, for 20 min; in data set [5] (5.00 mg/kg s.c.) it was 3.8 ± 0.04 nmol/g tissue, for 20 min. The “Release of dopamine, tuberculum olfactorium” value in data set [6] (0.25 mg/kg s.c.) is 4.3 ± 0.09 nmol/g tissue, for 20 min; in data set [6] (1.00 mg/kg s.c., Hydrochloride) it was 5.2 ± 0.12 nmol/g tissue, for 20 min; in data set [6] (5.00 mg/kg s.c.) it was 5.1 ± 0.39 nmol/g tissue, for 20 min. The survival entry in data set [7] is given as “all the mice survived”.
